How the values were obtained:
Type in all cases: functional
HL-60(TB) = assay: Growth inhibition of human HL-60(TB) cells assessed as cell growth at 10^-8 M incubated for 48 hrs by sulforhodamine B assay relative to control; settings: HL-60, 48 h, read-out: Activity
SK-MEL-2 = assay: Growth inhibition of human SK-MEL-2 cells assessed as cell growth at 10^-8 M incubated for 48 hrs by sulforhodamine B assay relative to control; settings: SK-MEL-2, 48 h, read-out: Activity
MCF7 [1] = assay: Growth inhibition of human MCF7 cells assessed as cell growth at 10^-8 M incubated for 48 hrs by sulforhodamine B assay relative to control; settings: MCF7, 48 h, read-out: Activity
MDA-MB-231 = assay: Growth inhibition of human MDA-MB-231 cells assessed as cell growth at 10^-8 M incubated for 48 hrs by sulforhodamine B assay relative to control; settings: MDA-MB-231, 48 h, read-out: Activity
SR = assay: Growth inhibition of human SR cells assessed as cell growth at 10^-7 M incubated for 48 hrs by sulforhodamine B assay relative to control; settings: read-out: Activity
EKVX = assay: Growth inhibition of human EKVX cells assessed as cell growth at 10^-7 M incubated for 48 hrs by sulforhodamine B assay relative to control; settings: read-out: Activity
COLO 205 = assay: Growth inhibition of human COLO205 cells assessed as cell growth at 10^-7 M incubated for 48 hrs by sulforhodamine B assay relative to control; settings: COLO 205, 48 h, read-out: Activity
SNB-19 = assay: Growth inhibition of human SNB19 cells assessed as cell growth at 10^-7 M incubated for 48 hrs by sulforhodamine B assay relative to control; settings: SNB-19, 48 h, read-out: Activity
IGROV-1 [2] = assay: Growth inhibition of human IGROV1 cells assessed as cell growth at 10^-7 M incubated for 48 hrs by sulforhodamine B assay relative to control; settings: IGROV-1, 48 h, read-out: Activity
OVCAR-4 [3] = assay: Growth inhibition of human OVCAR4 cells assessed as cell growth at 10^-7 M incubated for 48 hrs by sulforhodamine B assay relative to control; settings: OVCAR-4, 48 h, read-out: Activity
HCC 2998 = assay: Growth inhibition of human HCC2998 cells assessed as cell growth at 10^-6 M incubated for 48 hrs by sulforhodamine B assay relative to control; settings: HCC 2998, 48 h, read-out: Activity
HCT-116 = assay: Growth inhibition of human HCT116 cells assessed as cell growth at 10^-6 M incubated for 48 hrs by sulforhodamine B assay relative to control; settings: HCT-116, 48 h, read-out: Activity
M14 = assay: Growth inhibition of human M14 cells assessed as cell growth at 10^-6 M incubated for 48 hrs by sulforhodamine B assay relative to control; settings: M14, 48 h, read-out: Activity
MDA-MB-435 [4] = assay: Growth inhibition of human MDA-MB-435 cells assessed as cell growth at 10^-6 M incubated for 48 hrs by sulforhodamine B assay relative to control; settings: MDA-MB-435, 48 h, read-out: Activity
IGROV-1 [5] = assay: Growth inhibition of human IGROV1 cells assessed as cell growth at 10^-6 M incubated for 48 hrs by sulforhodamine B assay relative to control; settings: IGROV-1, 48 h, read-out: Activity
786-0 = assay: Growth inhibition of human 786-0 cells assessed as cell growth at 10^-6 M incubated for 48 hrs by sulforhodamine B assay relative to control; settings: 786-0, 48 h, read-out: Activity
OVCAR-4 [6] = assay: Growth inhibition of human OVCAR4 cells assessed as cell growth at 10^-5 M incubated for 48 hrs by sulforhodamine B assay relative to control; settings: OVCAR-4, 48 h, read-out: Activity
TK-10 = assay: Growth inhibition of human TK10 cells assessed as cell growth at 10^-5 M incubated for 48 hrs by sulforhodamine B assay relative to control; settings: TK-10, 48 h, read-out: Activity
HT-29 [7] = assay: Growth inhibition of human HT-29 cells assessed as cell growth at 10^-4 M incubated for 48 hrs by sulforhodamine B assay relative to control; settings: HT-29, 48 h, read-out: Activity
MDA-MB-435 [8] = assay: Growth inhibition of human MDA-MB-435 cells assessed as cell growth at 10^-4 M incubated for 48 hrs by sulforhodamine B assay relative to control; settings: MDA-MB-435, 48 h, read-out: Activity
SK-OV-3 = assay: Growth inhibition of human SKOV3 cells assessed as cell growth at 10^-4 M incubated for 48 hrs by sulforhodamine B assay relative to control; settings: SK-OV-3, 48 h, read-out: Activity
MCF7 [9] = assay: Growth inhibition of human MCF7 cells assessed as cell growth at 10^-4 M incubated for 48 hrs by sulforhodamine B assay relative to control; settings: MCF7, 48 h, read-out: Activity
MDA-MB-468 = assay: Growth inhibition of human MDA-MB-468 cells assessed as cell growth at 10^-4 M incubated for 48 hrs by sulforhodamine B assay relative to control; settings: MDA-MB-468, 48 h, read-out: Activity
HT-29 [10] = assay: Growth inhibition of human HT-29 cells incubated for 48 hrs by sulforhodamine B assay; settings: HT-29, 48 h
U-251 = assay: Growth inhibition of human U251 cells incubated for 48 hrs by sulforhodamine B assay; settings: U-251, 48 h
SK-MEL-28 = assay: Growth inhibition of human SK-MEL-28 cells incubated for 48 hrs by sulforhodamine B assay; settings: SK-MEL-28, 48 h
UACC-62 = assay: Growth inhibition of human UACC62 cells incubated for 48 hrs by sulforhodamine B assay; settings: UACC-62, 48 h
OVCAR-3 = assay: Growth inhibition of human OVCAR3 cells incubated for 48 hrs by sulforhodamine B assay; settings: OVCAR-3, 48 h
SN12C = assay: Growth inhibition of human SN12C cells incubated for 48 hrs by sulforhodamine B assay
[11] = read-out: LC50 (the source's name)
[12] = read-out: pLC50 (the source's name) (converted)

Molecule `CCS/C(Nc1ccccc1)=C(\C#N)C(=O)Nc1ccc(OC)cc1` has a growth at 0.01 µM (HL-60(TB)) of 96%, a growth at 0.01 µM (SK-MEL-2) of 106% and a growth at 0.01 µM (MCF7 [1]) of 98%. The growth at 0.01 µM (MDA-MB-231) was 104%, the growth at 0.1 µM (SR) was 85% and the growth at 0.1 µM (EKVX) was 81%. It also gave a growth at 0.1 µM (COLO 205) of 97%, a growth at 0.1 µM (SNB-19) of 95% and a growth at 0.1 µM (IGROV-1 [2]) of 101%. For the same molecule, the growth at 0.1 µM (OVCAR-4 [3]) was 88%, the growth at 1 µM (HCC 2998) was 91% and the growth at 1 µM (HCT-116) was 69%. For the same molecule, the growth at 1 µM (M14) was 72%, the growth at 1 µM (MDA-MB-435 [4]) was 19% and the growth at 1 µM (IGROV-1 [5]) was 79%. The growth at 1 µM (786-0) was 83%, the growth at 10 µM (OVCAR-4 [6]) was 45% and the growth at 10 µM (TK-10) was 66%. The growth at 100 µM (HT-29 [7]) was -8%, the growth at 100 µM (MDA-MB-435 [8]) was -35% and the growth at 100 µM (SK-OV-3) was -4%. It also gave a growth at 100 µM (MCF7 [9]) of 6%, a growth at 100 µM (MDA-MB-468) of -24% and a GI50 (HT-29 [10]; read-out: GI50) of 3.47 µM. It also gave a CC50 (HT-29 [10]; [11]) greater than 100 µM, a TGI (HT-29 [10]; read-out: TGI) of 33.3 µM and a GI50 (HT-29 [10]; read-out: pGI50 (converted)) of 3.47 µM. The CC50 (HT-29 [10]; [12]) was greater than 100 µM, the TGI (HT-29 [10]; read-out: pTGI (converted)) was 33.1 µM and the GI50 (U-251; read-out: GI50) was 4.42 µM. The CC50 (U-251; [11]) was greater than 100 µM, the TGI (U-251; read-out: TGI) was greater than 100 µM and the GI50 (U-251; read-out: pGI50 (converted)) was 4.47 µM. For the same molecule, the CC50 (U-251; [12]) was greater than 100 µM, the TGI (U-251; read-out: pTGI) was greater than 100 µM and the GI50 (SK-MEL-28; read-out: GI50) was 15.3 µM. For the same molecule, the CC50 (SK-MEL-28; [11]) was greater than 100 µM, the TGI (SK-MEL-28; read-out: TGI) was greater than 100 µM and the GI50 (SK-MEL-28; read-out: pGI50 (converted)) was 15.5 µM. It also gave a CC50 (SK-MEL-28; [12]) greater than 100 µM, a TGI (SK-MEL-28; read-out: pTGI) greater than 100 µM and a GI50 (UACC-62; read-out: GI50) of 2.58 µM. It also gave a CC50 (UACC-62; [11]) greater than 100 µM, a TGI (UACC-62; read-out: TGI) greater than 100 µM and a GI50 (UACC-62; read-out: pGI50 (converted)) of 2.57 µM. For the same molecule, the CC50 (UACC-62; [12]) was greater than 100 µM, the TGI (UACC-62; read-out: pTGI) was greater than 100 µM and the GI50 (OVCAR-3; read-out: GI50) was 2.61 µM. For the same molecule, the CC50 (OVCAR-3; [11]) was greater than 100 µM, the TGI (OVCAR-3; read-out: TGI) was 8.59 µM and the GI50 (OVCAR-3; read-out: pGI50 (converted)) was 2.63 µM. It also gave a CC50 (OVCAR-3; [12]) greater than 100 µM, a TGI (OVCAR-3; read-out: pTGI (converted)) of 8.51 µM and a GI50 (SN12C; read-out: GI50) of 5.91 µM. The CC50 (SN12C; [11]) was greater than 100 µM, the TGI (SN12C; read-out: TGI) was greater than 100 µM and the GI50 (SN12C; read-out: pGI50 (converted)) was 5.89 µM. For the same molecule, the CC50 (SN12C; [12]) was greater than 100 µM and the TGI (SN12C; read-out: pTGI) was greater than 100 µM.
In the case of `CCS/C(Nc1ccccc1)=C(\C#N)C(=O)N/N=C\c1ccc(Cl)cc1Cl`, the growth at 0.01 µM (HL-60(TB)) is reported as 97%, the growth at 0.01 µM (SK-MEL-2) is reported as 106% and the growth at 0.01 µM (MCF7 [1]) is reported as 97%. The growth at 0.01 µM (MDA-MB-231) was 101%, the growth at 0.1 µM (SR) was 80% and the growth at 0.1 µM (EKVX) was 88%. The growth at 0.1 µM (COLO 205) was 97%, the growth at 0.1 µM (SNB-19) was 94% and the growth at 0.1 µM (IGROV-1 [2]) was 98%. For the same molecule, the growth at 0.1 µM (OVCAR-4 [3]) was 89%, the growth at 1 µM (HCC 2998) was 99% and the growth at 1 µM (HCT-116) was 89%. For the same molecule, the growth at 1 µM (M14) was 72%, the growth at 1 µM (MDA-MB-435 [4]) was 28% and the growth at 1 µM (IGROV-1 [5]) was 84%. For the same molecule, the growth at 1 µM (786-0) was 83%, the growth at 10 µM (OVCAR-4 [6]) was 42% and the growth at 10 µM (TK-10) was 50%. For the same molecule, the growth at 100 µM (HT-29 [7]) was 9%, the growth at 100 µM (MDA-MB-435 [8]) was -52% and the growth at 100 µM (SK-OV-3) was 12%. For the same molecule, the growth at 100 µM (MCF7 [9]) was 9%, the growth at 100 µM (MDA-MB-468) was -7% and the GI50 (HT-29 [10]; read-out: GI50) was 3.7 µM. The CC50 (HT-29 [10]; [11]) was greater than 100 µM, the TGI (HT-29 [10]; read-out: TGI) was greater than 100 µM and the GI50 (HT-29 [10]; read-out: pGI50 (converted)) was 3.72 µM. It also gave a CC50 (HT-29 [10]; [12]) greater than 100 µM, a TGI (HT-29 [10]; read-out: pTGI (converted)) greater than 100 µM and a GI50 (U-251; read-out: GI50) of 3.95 µM. For the same molecule, the CC50 (U-251; [11]) was greater than 100 µM, the TGI (U-251; read-out: TGI) was greater than 100 µM and the GI50 (U-251; read-out: pGI50 (converted)) was 3.98 µM. For the same molecule, the CC50 (U-251; [12]) was greater than 100 µM, the TGI (U-251; read-out: pTGI) was greater than 100 µM and the GI50 (SK-MEL-28; read-out: GI50) was 23.6 µM. For the same molecule, the CC50 (SK-MEL-28; [11]) was greater than 100 µM, the TGI (SK-MEL-28; read-out: TGI) was greater than 100 µM and the GI50 (SK-MEL-28; read-out: pGI50 (converted)) was 23.4 µM. It also gave a CC50 (SK-MEL-28; [12]) greater than 100 µM, a TGI (SK-MEL-28; read-out: pTGI) greater than 100 µM and a GI50 (UACC-62; read-out: GI50) of 2.74 µM. The CC50 (UACC-62; [11]) was greater than 100 µM, the TGI (UACC-62; read-out: TGI) was greater than 100 µM and the GI50 (UACC-62; read-out: pGI50 (converted)) was 2.75 µM. It also gave a CC50 (UACC-62; [12]) greater than 100 µM, a TGI (UACC-62; read-out: pTGI) greater than 100 µM and a GI50 (OVCAR-3; read-out: GI50) of 2.8 µM. It also gave a CC50 (OVCAR-3; [11]) greater than 100 µM, a TGI (OVCAR-3; read-out: TGI) of 10.8 µM and a GI50 (OVCAR-3; read-out: pGI50 (converted)) of 2.82 µM. For the same molecule, the CC50 (OVCAR-3; [12]) was greater than 100 µM, the TGI (OVCAR-3; read-out: pTGI (converted)) was 10.7 µM and the GI50 (SN12C; read-out: GI50) was 6.92 µM. The CC50 (SN12C; [11]) was greater than 100 µM, the TGI (SN12C; read-out: TGI) was greater than 100 µM and the GI50 (SN12C; read-out: pGI50 (converted)) was 6.92 µM. The CC50 (SN12C; [12]) was greater than 100 µM and the TGI (SN12C; read-out: pTGI) was greater than 100 µM.
